Experimental data: paper PMC6385358, “Discovery of ((1,2,4-oxadiazol-5-yl)pyrrolidin-3-yl)ureidyl derivatives as selective non-steroidal agonists of the G-protein coupled bile acid receptor-1” (Scientific Reports, 2019)
“And” between values parts separate entries of the source, which are not always exact repeats. Identical values can stand only once.

Assays:
[1] = Liver microsomal stability; type: in vitro ADME, mouse; settings: liver microsomes; for CIint / half-life at 1 μM: 1 μM compound; for CIint: 0.3 mg protein/mL; for half-life at 1 μM: male, CD-1, mouse, pH 7.4, read-out: t½
Experimental: (§1) Chromatography was performed using a HPLC–MS system Q-ToF Premiere instrument (Waters, Co.) equipped with an ESI source and Waters pump systems. The mixture was separated on a Luna 5 µm C8(2) 100 °A 150 × 2 mm from Phenomenex. The mobile phase consisted of 0.2% formic acid (FA) in water as solvent A and 0.2% FA in acetonitrile as solvent B at a flow rate of 200 μL/min. The gradient was as follows: 0–2 min (75% A and 25% B), 2–20 min (5% A and 95% B), 20–30 min (75% A and 25% B). The detection of analytes was achieved by ESI in the positive mode with the appropriate MRM transition or by UV system at 220 nm.
Male mouse (CD-1) liver microsomes (Sigma-Aldrich) were used. All incubations were performed in duplicate in a shaking water bath at 37 °C. The incubation mixtures contained 1 μM compound with 1% DMSO used as a vehicle, mouse liver microsomes (0.3 mg of microsomal protein per mL), 5 mM MgCl2, 1 mM NADP, 5 mM glucose 6-phosphate, 0.4 U·mL^-^1 glucose 6-phosphate dehydrogenase, and 50 mM potassium phosphate buffer (pH 7.4) in a final volume of 0.5 mL. Aliquots were removed at 0, 5, 10, 20, 30, and 40 min after microsome addition and the reaction was stopped by adding 200 μL of ice-cold acetonitrile. After 2 h, the samples were centrifuged for 10 min at 10000 rpm, and the supernatants were transferred in matrix tubes for LC-MS/MS analysis. Propranolol, known as a high hepatic clearance drug in rodents, was used as a quality-control compound for the microsomal incubations. The slope of the linear regression of the curve obtained reporting the natural logarithm of compound area versus incubation time (−k) was used in the conversion to in vitro t1/2 values by t1/2 = […]. In vitro intrinsic clearance (Clint expressed as μL/min/mg) was calculated according to the following formula: Clint = volume of reaction (μL)/t1/2 (min)/protein of liver microsomes (mg).

[2] = LogD measurement (octanol/PBS pH 7.4); type: physicochemical; settings: octanol/PBS (1/1)
Experimental: as §1
Ten μL of a 10 mM solution in DMSO of the compound was diluted in 490 μL of a 1/1 octanol/PBS mixture at pH 7.4. The mixture was gently shaken for 2 h at room temperature. Ten microliters of each phase was diluted in 490 μL of MeOH and analyzed by LC-MS/MS. Each compound was tested in triplicate. Log D was determined as the logarithm of the ratio of concentration of product in octanol and PBS, determined by mass signals.

[3] = Aqueous solubility measurement (PBS pH 7.4, LC-MS); type: physicochemical; settings: aqueous buffer, kinetic from dmso stock; PBS pH 7.4, 24 h room temperature
Experimental: as §1
Ten μL of a 10 mM solution in DMSO of the compound was diluted either in 490 μL of PBS pH 7.4 or in the organic solvent MeOH (in triplicate). The tubes were gently shaken 24 h at room temperature, then centrifuged for 5 min at 4000 rpm. Ten μL of sample was diluted in 490 μL of MeOH. The solubility is determined by the ratio of mass signal area PBS/organic solvent.

[4] = test system: pro-glucagon mRNA in GLUTag cells; assay: RT-PCR of pro-glucagon mRNA expression in GLUTag cells; type: cell-based, mouse; settings: 10 μM
Experimental: The activity of compounds 1–14 on GPBAR1 was evaluated in a luciferase reporter assay using HEK-293T cells transfected with GPBAR1. The efficacy of tested compounds (Table 1) was measured using taurolithocholic acid (TLCA) as GPBAR1 reference compound[10],[11]. Each compound was tested at the concentration of 10 μM and transactivation activity of TLCA on a cAMP responsive element (CRE) (i.e. TGR5/GPBAR1) was considered equal to 100%. […] Thus, 9 and 10 (Table 1) turned out to be the most promising derivatives considering their low EC50 values and high activity efficacy. To further characterize the pharmacological properties of these compounds, we expanded their in vitro profile to common off-targets for bile acid receptor ligands.
Figure 3 (A) Dose response curves of compounds 9 and 10 (concentrations ranging from 1 to 50 µM) in luciferase reporter assay. (B) Real-time PCR analysis of mRNA expression of Pro-glucagon in GLUTag cells treated with compounds 9 and 10 at 10 μM, and TLCA used as a positive control (10 μM). Values are normalized to GAPDH and are expressed relative to those of not treated cells (NT) which are arbitrarily settled to 1. The relative mRNA expression is expressed as 2^(−ΔΔCt). (C) Specificity of compounds 9 and 10 at 10 μM dose in luciferase reporter assays versus PPARα and PPARγ using Gemfibrozil (GEM, 10 μM) and Rosiglitazone (ROSI, 100 nM) as positive controls respectively. (D) Specificity of compounds 9 and 10 at 10 μM in luciferase reporter assays versus LXRα and LXRβ using GW3965 (GW, 10 μM) as positive control. (E) Specificity of compounds 9 and 10 at 10 μM in luciferase reporter assays versus FXR using CDCA (10 μM) as positive control; (F) Specificity of compounds 9 and 10 at 10 μM in luciferase reporter assays versus PXR using Rifaximin (Rifax, 10 μM) as positive control.
Evaluation of proglucagon mRNA expression was performed in RT-PCR on GLUTag cells (1 × 10^6 cells/well in a 6 well plate) as previously reported[34],[47]. The relative mRNA expression was calculated and expressed as 2^−(ΔΔCt). […]

| Structure (SMILES) | CIint [1] | Compound remaining 40 min after treatment [1] | half-life at 1 μM [1] | logD at 2 h [2] | solubility at 24 h [3] | Induction of pro-glucagon mRNA expression [4] | Efficacy in inducing pro-glucagon mRNA expression compared with TLCA ([4]; TLCA 10 μM) |
| --- | --- | --- | --- | --- | --- | --- | --- |
| O=C(Nc1ccc(Cl)cc1)N[C@@H]1CN[C@H](c2nc(-c3ccccc3)no2)C1 [Compound 9] | 67 μL/min/mg protein | 42% | 35 min | 1.47 | 42 µg/mL and 110 µM | effective in inducing the expression of pro-glucagon mRNA | – |
| O=C(NC1CCCCC1)N[C@@H]1CN[C@H](c2nc(-c3ccccc3)no2)C1 [Compound 10] | 76 μL/min/mg protein | 40% | 30 min | 1.25 | 70 µg/mL and 198 µM | effective in inducing the expression of pro-glucagon mRNA | same efficacy of TLCA |
